Assay results published in ChEMBL document CHEMBL3046894, “Synthesis and Herbicidal Activity of Pyrimidinyl Salicylic and Thiosalicylic Acids” (J Pestic Sci, 1996).
Activity calls are given as the source filed them. The calls are words filed in the database; no cut-off is given here.

Legend:
Echinochloa crus-galli [1] = assay: Pre-emergence herbicidal activity against Echinochloa crus-galli (barnyard grass) assessed as mortality at 6.3 g a.i/10 a; format: functional; settings: for mortality at 63 g/ha: Echinochloa crus-galli, pre-emergence
Ipomoea lacunosa [2] = assay: Post-emergence herbicidal activity against Ipomoea lacunosa assessed as mortality at 6.3 g a.i/10 a applied 11 days after germination as foliar spray; format: functional; settings: 264 h
Abutilon theophrasti [3] = assay: Post-emergence herbicidal activity against Abutilon theophrasti (velvetleaf) assessed as mortality at 1.6 g a.i/10 a applied 11 days after germination as foliar spray; format: functional; settings: 264 h
Abutilon theophrasti [4] = assay: Post-emergence herbicidal activity against Abutilon theophrasti (velvetleaf) assessed as mortality at 6.3 g a.i/10 a applied 11 days after germination as foliar spray; format: functional; settings: 264 h
[5] = (§1) Pre-emergence phytotoxicity against Gossypium hirsutum (cotton) assessed as mortality at 6.3 g a.i/10 a; format: organism-based; settings: in vivo, 6.3 g a.i/10 a, read-out: Activity
Gossypium hirsutum [6] = assay: Pre-emergence phytotoxicity against Gossypium hirsutum (cotton) assessed as mortality at 1.6 g a.i/10 a; format: organism-based; settings: in vivo, other
[7] = (§2) Pre-emergence phytotoxicity against Glycine max (soybean) assessed as mortality at 1.6 g a.i/10 a; format: organism-based; settings: in vivo, 1.6 g a.i/10 a, read-out: Activity
[8] = Pre-emergence phytotoxicity against Glycine max (soybean) assessed as mortality at 6.3 g a.i/10 a; format: organism-based; settings: in vivo, 6.3 g a.i/10 a
[9] = Pre-emergence phytotoxicity against Zea mays (maize) assessed as mortality at 1.6 g a.i/10 a; format: organism-based; settings: in vivo, 1.6 g a.i/10 a
Zea mays [10] = assay: Pre-emergence phytotoxicity against Zea mays (maize) assessed as mortality at 6.3 g a.i/10 a; format: organism-based; settings: in vivo, other
Gossypium hirsutum [11] = assay: Post-emergence phytotoxicity against Gossypium hirsutum (cotton) assessed as mortality at 1.6 g a.i/10 a applied 11 days after germination as foliar spray; format: organism-based; settings: in vivo, other, 264 h
[12] = (§3) Post-emergence phytotoxicity against Gossypium hirsutum (cotton) assessed as mortality at 6.3 g a.i/10 a applied 11 days after germination as foliar spray; format: organism-based; settings: in vivo, 6.3 g a.i/10 a
Glycine max [13] = assay: Post-emergence phytotoxicity against Glycine max (soybean) assessed as mortality at 6.3 g a.i/10 a applied 11 days after germination as foliar spray; format: organism-based; settings: in vivo, other, 264 h
Glycine max [14] = assay: (§4) Post-emergence phytotoxicity against Glycine max (soybean) assessed as mortality at 1.6 g a.i/10 a applied 11 days after germination as foliar spray; format: organism-based; settings: in vivo, other, 264 h
Zea mays [15] = assay: (§5) Post-emergence phytotoxicity against Zea mays (maize) assessed as mortality at 1.6 g a.i/10 a applied 11 days after germination as foliar spray; format: organism-based; settings: in vivo, other, 264 h
Echinochloa crus-galli [16] = assay: Post-emergence herbicidal activity against Echinochloa crus-galli (barnyard grass) assessed as mortality at 1.6 g a.i/10 a applied 11 days after germination as foliar spray; format: functional; settings: 264 h
Echinochloa crus-galli [17] = assay: Post-emergence herbicidal activity against Echinochloa crus-galli (barnyard grass) assessed as mortality at 6.3 g a.i/10 a applied 11 days after germination as foliar spray; format: functional; settings: 264 h
Xanthium strumarium [18] = assay: Pre-emergence herbicidal activity against Xanthium strumarium (cocklebur) assessed as mortality at 1.6 g a.i/10 a; format: functional
Xanthium strumarium [19] = assay: Pre-emergence herbicidal activity against Xanthium strumarium (cocklebur) assessed as mortality at 6.3 g a.i/10 a; format: functional
Ipomoea lacunosa [20] = assay: Pre-emergence herbicidal activity against Ipomoea lacunosa assessed as mortality at 1.6 g a.i/10 a; format: functional; settings: for mortality at 16 g/ha: Ipomoea lacunosa, pre-emergence
Ipomoea lacunosa [21] = assay: Pre-emergence herbicidal activity against Ipomoea lacunosa assessed as mortality at 6.3 g a.i/10 a; format: functional
Abutilon theophrasti [22] = assay: Pre-emergence herbicidal activity against Abutilon theophrasti (velvetleaf) assessed as mortality at 1.6 g a.i/10 a; format: functional
Abutilon theophrasti [23] = assay: Pre-emergence herbicidal activity against Abutilon theophrasti (velvetleaf) assessed as mortality at 6.3 g a.i/10 a; format: functional; settings: for mortality at 63 g/ha: Abutilon theophrasti, pre-emergence
Echinochloa crus-galli [24] = assay: Pre-emergence herbicidal activity against Echinochloa crus-galli (barnyard grass) assessed as mortality at 1.6 g a.i/10 a; format: functional
Xanthium strumarium [25] = assay: Post-emergence herbicidal activity against Xanthium strumarium (cocklebur) assessed as mortality at 6.3 g a.i/10 a applied 11 days after germination as foliar spray; format: functional; settings: 264 h
Ipomoea lacunosa [26] = assay: Post-emergence herbicidal activity against Ipomoea lacunosa assessed as mortality at 1.6 g a.i/10 a applied 11 days after germination as foliar spray; format: functional; settings: 264 h
Gossypium hirsutum [27] = assay: as §1; format: organism-based; settings: in vivo, other
Glycine max [28] = assay: as §2; format: organism-based; settings: in vivo, other
Gossypium hirsutum [29] = assay: as §3; format: organism-based; settings: in vivo, other, 264 h
[30] = as §4; format: organism-based; settings: in vivo, 1.6 g a.i/10 a
[31] = as §5; format: organism-based; settings: in vivo, 1.6 g a.i/10 a
Cyperus iria [32] = assay: Pre-emergence herbicidal activity against Cyperus iria assessed as growth inhibition at 25 g a.i/10 a; format: functional, organism-based
Chenopodium album [33] = assay: Pre-emergence herbicidal activity against Chenopodium album assessed as growth inhibition at 25 g a.i/10 a; format: functional, organism-based
Amaranthus retroflexus [34] = assay: Pre-emergence herbicidal activity against Amaranthus retroflexus assessed as growth inhibition at 25 g a.i/10 a; format: functional, organism-based
Persicaria nodosa [35] = assay: Pre-emergence herbicidal activity against Persicaria nodosa assessed as growth inhibition at 25 g a.i/10 a; format: functional, organism-based
Digitaria sanguinalis [36] = assay: Pre-emergence herbicidal activity against Digitaria sanguinalis (hairy crabgrass) assessed as growth inhibition at 25 g a.i/10 a; format: functional, organism-based
Echinochloa crus-galli [37] = assay: Pre-emergence herbicidal activity against Echinochloa crus-galli (barnyard grass) assessed as growth inhibition at 25 g a.i/10 a; format: functional, organism-based
Cyperus iria [38] = assay: Post-emergence herbicidal activity against Cyperus iria assessed as growth inhibition at 25 g a.i/10 a applied 11 days after germination as foliar spray; format: functional, organism-based
Chenopodium album [39] = assay: Post-emergence herbicidal activity against Chenopodium album assessed as growth inhibition at 25 g a.i/10 a applied 11 days after germination as foliar spray; format: functional, organism-based
Amaranthus retroflexus [40] = assay: Post-emergence herbicidal activity against Amaranthus retroflexus assessed as growth inhibition at 25 g a.i/10 a applied 11 days after germination as foliar spray; format: functional, organism-based
Persicaria nodosa [41] = assay: Post-emergence herbicidal activity against Persicaria nodosa assessed as growth inhibition at 25 g a.i/10 a applied 11 days after germination as foliar spray; format: functional, organism-based
Digitaria sanguinalis [42] = assay: Post-emergence herbicidal activity against Digitaria sanguinalis (hairy crabgrass) assessed as growth inhibition at 25 g a.i/10 a applied 11 days after germination as foliar spray; format: functional, organism-based
Echinochloa crus-galli [43] = assay: Post-emergence herbicidal activity against Echinochloa crus-galli (barnyard grass) assessed as growth inhibition at 25 g a.i/10 a applied 11 days after germination as foliar spray; format: functional, organism-based
Gossypium hirsutum [44] = assay: Post-emergence phytotoxicity against Gossypium hirsutum (cotton) assessed as mortality per 10 acre; format: organism-based; settings: in vivo
Ipomoea lacunosa [45] = assay: Pre-emergence herbicidal activity against Ipomoea lacunosa assessed as mortality per 10 acre; format: functional
Persicaria nodosa [46] = assay: Pre-emergence herbicidal activity against Persicaria nodosa assessed as mortality per 10 acre; format: functional
Amaranthus retroflexus [47] = assay: Pre-emergence herbicidal activity against Amaranthus retroflexus assessed as mortality per 10 acre; format: functional
Echinochloa crus-galli [48] = assay: Pre-emergence herbicidal activity against Echinochloa crus-galli (barnyard grass) assessed as mortality per 10 acre; format: functional
Gossypium hirsutum [49] = assay: Pre-emergence phytotoxicity against Gossypium hirsutum (cotton) assessed as mortality per 10 acre; format: organism-based; settings: in vivo
Xanthium strumarium [50] = assay: Post-emergence herbicidal activity against Xanthium strumarium (cocklebur) assessed as mortality per 10 acre; format: functional
Ipomoea lacunosa [51] = assay: Post-emergence herbicidal activity against Ipomoea lacunosa assessed as mortality per 10 acre; format: functional
Persicaria nodosa [52] = assay: Post-emergence herbicidal activity against Persicaria nodosa assessed as mortality per 10 acre; format: functional
Amaranthus retroflexus [53] = assay: Post-emergence herbicidal activity against Amaranthus retroflexus assessed as mortality per 10 acre; format: functional
Echinochloa crus-galli [54] = assay: Post-emergence herbicidal activity against Echinochloa crus-galli (barnyard grass) assessed as mortality per 10 acre; format: functional
Xanthium strumarium [55] = assay: Pre-emergence herbicidal activity against Xanthium strumarium (cocklebur) assessed as mortality per 10 acre; format: functional

## COc1cc(OC)nc(Sc2cccc(OC(C)C)c2C(=O)O)n1
Echinochloa crus-galli [1]
  Activity: <50%
Ipomoea lacunosa [2]
  mortality at 63 g/ha: > 90%
Abutilon theophrasti [3]
  mortality at 16 g/ha: > 90%
Abutilon theophrasti [4]
  mortality at 63 g/ha: > 90%
[5]
  mortality: < 50%
Gossypium hirsutum [6]
  Activity: < 50%
[7]
  mortality: < 50%
[8]; read-out: Activity
  mortality: < 50%
[9]; read-out: Activity
  mortality: < 50%
Zea mays [10]
  Activity: < 50%
Gossypium hirsutum [11]
  Activity: Non-toxic
[12]
  mortality at 264 h: > 90%
Glycine max [13]
  Activity: Toxic
Glycine max [14]
  Activity: Toxic
Zea mays [15]
  Activity: Toxic
Echinochloa crus-galli [16]
  mortality at 16 g/ha: < 5%
Echinochloa crus-galli [17]
  mortality at 63 g/ha: < 5%
Xanthium strumarium [18]
  Activity: <50%
Xanthium strumarium [19]
  Activity: <50%
Ipomoea lacunosa [20]
  Activity: <50%
Ipomoea lacunosa [21]
  Activity: <50%
Abutilon theophrasti [22]
  Activity: <50%
Abutilon theophrasti [23]
  Activity: <50%
Echinochloa crus-galli [24]
  Activity: <50%

## COc1cc(OC)nc(Oc2cccc(I)c2C(=O)O)n1
Echinochloa crus-galli [1]
  mortality at 63 g/ha: > 90%
Xanthium strumarium [25]
  mortality at 63 g/ha: > 90%
Ipomoea lacunosa [26]
  mortality at 16 g/ha: > 90%
Ipomoea lacunosa [2]
  mortality at 63 g/ha: > 90%
Abutilon theophrasti [3]
  mortality at 16 g/ha: > 90%
Abutilon theophrasti [4]
  mortality at 63 g/ha: > 90%
Gossypium hirsutum [27]
  Activity: Non-toxic
Gossypium hirsutum [6]
  Activity: Non-toxic
Glycine max [28]
  Activity: Toxic
[8]; read-out: mortality
  mortality: > 90%
[9]; read-out: mortality
  mortality: > 90%
Gossypium hirsutum [11]
  Activity: Toxic
Gossypium hirsutum [29]
  Activity: Toxic
[30]
  mortality at 264 h: > 90%
[31]
  mortality at 264 h: > 90%
Echinochloa crus-galli [17]
  mortality at 63 g/ha: > 90%
Cyperus iria [32]
  growth inhibition (GI): Active
Chenopodium album [33]
  growth inhibition (GI): Active
Amaranthus retroflexus [34]
  growth inhibition (GI): Active
Persicaria nodosa [35]
  growth inhibition (GI): Active
Digitaria sanguinalis [36]
  growth inhibition (GI): Active
Echinochloa crus-galli [37]
  growth inhibition (GI): Active
Cyperus iria [38]
  growth inhibition (GI): Active
Chenopodium album [39]
  growth inhibition (GI): Active
Amaranthus retroflexus [40]
  growth inhibition (GI): Active
Persicaria nodosa [41]
  growth inhibition (GI): Active
Digitaria sanguinalis [42]
  growth inhibition (GI): Active
Echinochloa crus-galli [43]
  growth inhibition (GI): Active
Xanthium strumarium [18]; Xanthium strumarium, pre-emergence
  mortality at 16 g/ha: < 5%
Ipomoea lacunosa [20]
  mortality at 16 g/ha: < 5%
Abutilon theophrasti [22]; Abutilon theophrasti, pre-emergence
  mortality at 16 g/ha: > 90%
Abutilon theophrasti [23]
  mortality at 63 g/ha: > 90%

## COc1cc(OC)nc(Oc2cccc(Br)c2C(=O)O)n1
Gossypium hirsutum [44]
  ED20: 0.2 gAi
Echinochloa crus-galli [1]
  mortality at 63 g/ha: > 90%
Xanthium strumarium [25]
  mortality at 63 g/ha: > 90%
Ipomoea lacunosa [26]
  mortality at 16 g/ha: > 90%
Ipomoea lacunosa [2]
  mortality at 63 g/ha: > 90%
Abutilon theophrasti [3]
  mortality at 16 g/ha: > 90%
Abutilon theophrasti [4]
  mortality at 63 g/ha: > 90%
Gossypium hirsutum [27]
  Activity: Non-toxic
Gossypium hirsutum [6]
  Activity: Non-toxic
Glycine max [28]
  Activity: Toxic
[8]; read-out: mortality
  mortality: > 90%
[9]; read-out: mortality
  mortality: > 90%
Gossypium hirsutum [11]
  Activity: Toxic
Gossypium hirsutum [29]
  Activity: Toxic
[30]
  mortality at 264 h: > 90%
[31]
  mortality at 264 h: > 90%
Echinochloa crus-galli [17]
  mortality at 63 g/ha: > 90%
Cyperus iria [32]
  growth inhibition (GI): Active
Chenopodium album [33]
  growth inhibition (GI): Active
Amaranthus retroflexus [34]
  growth inhibition (GI): Active
Persicaria nodosa [35]
  growth inhibition (GI): Active
Digitaria sanguinalis [36]
  growth inhibition (GI): Active
Echinochloa crus-galli [37]
  growth inhibition (GI): Active
Cyperus iria [38]
  growth inhibition (GI): Active
Chenopodium album [39]
  growth inhibition (GI): Active
Amaranthus retroflexus [40]
  growth inhibition (GI): Active
Persicaria nodosa [41]
  growth inhibition (GI): Active
Digitaria sanguinalis [42]
  growth inhibition (GI): Active
Echinochloa crus-galli [43]
  growth inhibition (GI): Active
Ipomoea lacunosa [45]
  ED90: 25 gAi
Persicaria nodosa [46]
  ED90: 0.4 gAi
Amaranthus retroflexus [47]
  ED90: 0.4 gAi
Echinochloa crus-galli [48]
  ED90: 1.5 gAi
Gossypium hirsutum [49]
  ED20: Toxic
Xanthium strumarium [50]
  ED90: 1.5 gAi
Ipomoea lacunosa [51]
  ED90: 0.8 gAi
Persicaria nodosa [52]
  ED90: 0.2 gAi
Amaranthus retroflexus [53]
  ED90: 0.2 gAi
Echinochloa crus-galli [54]
  ED90: inactive
Ipomoea lacunosa [20]
  mortality at 16 g/ha: < 5%
Xanthium strumarium [55]
  ED90: 25 gAi
Abutilon theophrasti [23]
  mortality at 63 g/ha: > 90%
